Reference: patent US10118916B2, “Modulators of cystic fibrosis transmembrane conductance regulator protein” (AbbVie S.à.r.l., priority 2016, dated 2018)

Target: T1, F508delCFTR (Homo sapiens, UniProt P13569, DEL508-508)
T1 construct: expressed in transfected cells; host or cells: CFBE41o- (human lung derived epithelial cell line), doxycycline-inducible
Test: Cell Surface Expression-Horse Radish Peroxidase (CSE-HRP) assay
Format: cell-based
Settings: CFBE41o-F508delCFTR-HRP cells; for EC50: F508delCFTR cell surface expression, luminescence, 18-24 hours at 33° C., highest concentration 20 μM; for Maximum % activity: maximum at any tested concentration, normalized to on-plate positive control (3 μM)
Description: Cell Surface Expression-Horse Radish Peroxidase (CSE-HRP) Assay:
A cellular assay for measuring the F508delCFTR cell surface expression after correction with test compounds was developed in human lung derived epithelial cell line (CFBE41o-) (Veit G et al, (2012) Mol Biol Cell. 23(21): 4188-4202). This was achieved by expressing the F508delCFTR mutation along with a horseradish peroxidase (HRP) in the fourth exofacial loop and then measuring the HRP activity using luminescence readout from these cells, CFBE41o-F508delCFTR-HRP, that were incubated overnight with the test corrector compounds. Briefly, for this primary assay, the CFBE41o-F508delCFTR-HRP cells were plated in 384-well plates (Greiner Bio-one; Cat 781080) at 4,000 cells/well along with 0.5 μg/mL doxycycline to induce the F508delCFTR-HRP expression and further incubated at 37° C., 5% CO2 for 72 hours. The test compounds were then added at the required concentrations and further incubated for 18-24 hours at 33° C. The highest concentration tested was 20 μM with an 8-point concentration response curve using a 3-fold dilution. Three replicate plates were run to determine one EC50. All plates contained negative controls (dimethyl sulfoxide, DMSO) and positive controls (3 μM of 3-[(2R,4R)-4-({[1-(2,2-difluoro-1,3-benzodioxol-5-yl)cyclopropyl]carbonyl}amino)-7-methoxy-3,4-dihydro-2H-chromen-2-yl]benzoic acid) as well as on-plate concentration response of the positive control. Post incubation, the plates were washed 5× times with Dulbecco's phosphate buffered saline (DPBS), followed by the addition of the HRP substrate, luminol (50 μL), and measuring the HRP activity using luminescence readout on EnVision® Multilabel Plate Reader (Perkin Elmer; product number 2104-0010). The raw counts from the experiment are analyzed using Accelrys® Assay Explorer v3.3.
Z′ greater than 0.5 was used as passing quality control criteria for the plates.
The Z′ is defined as: 1−[3*SDPositive Control+3*SDNegative Control/Absolute(MeanPositive Control−MeanNegative Control)] wherein “SD” is standard deviation.
The % activity measured at each of the 8 test concentrations of the test compound was normalized to the on-plate positive control using the following formula: % activity=[(test compound response−DMSO response)/(positive control response−DMSO response)]*100
The maximum % activity achieved for the test compound at any tested concentration is presented in Table 1 along with the EC50 calculated using the following general sigmoidal curve with variable Hill slope equation (described as Model 42 in the Accelrys® Assay Explorer v3.3 software): y=(a−d)/(1+(x/c)^b)+d
General sigmoidal curve with concentration, response, top, bottom, EC50 and Hill slope.
This model describes a sigmoidal curve with an adjustable baseline, a. The equation can be used to fit curves where response is either increasing or decreasing with respect to the independent variable, “x”. • “x” is a concentration of drug under test. • “y” is the response. • “a” is the maximum response, and “d” is the minimum response • “c” is the inflection point (EC50) for the curve. That is, “y” is halfway between the lower and upper asymptotes when x=c. • “b” is the slope-factor or Hill coefficient. The sign of b is positive when the response increases with increasing dose and is negative when the response decreases with increasing dose (inhibition).

T1 sequence (P13569 with tags, fused parts or gaps DEL508-508): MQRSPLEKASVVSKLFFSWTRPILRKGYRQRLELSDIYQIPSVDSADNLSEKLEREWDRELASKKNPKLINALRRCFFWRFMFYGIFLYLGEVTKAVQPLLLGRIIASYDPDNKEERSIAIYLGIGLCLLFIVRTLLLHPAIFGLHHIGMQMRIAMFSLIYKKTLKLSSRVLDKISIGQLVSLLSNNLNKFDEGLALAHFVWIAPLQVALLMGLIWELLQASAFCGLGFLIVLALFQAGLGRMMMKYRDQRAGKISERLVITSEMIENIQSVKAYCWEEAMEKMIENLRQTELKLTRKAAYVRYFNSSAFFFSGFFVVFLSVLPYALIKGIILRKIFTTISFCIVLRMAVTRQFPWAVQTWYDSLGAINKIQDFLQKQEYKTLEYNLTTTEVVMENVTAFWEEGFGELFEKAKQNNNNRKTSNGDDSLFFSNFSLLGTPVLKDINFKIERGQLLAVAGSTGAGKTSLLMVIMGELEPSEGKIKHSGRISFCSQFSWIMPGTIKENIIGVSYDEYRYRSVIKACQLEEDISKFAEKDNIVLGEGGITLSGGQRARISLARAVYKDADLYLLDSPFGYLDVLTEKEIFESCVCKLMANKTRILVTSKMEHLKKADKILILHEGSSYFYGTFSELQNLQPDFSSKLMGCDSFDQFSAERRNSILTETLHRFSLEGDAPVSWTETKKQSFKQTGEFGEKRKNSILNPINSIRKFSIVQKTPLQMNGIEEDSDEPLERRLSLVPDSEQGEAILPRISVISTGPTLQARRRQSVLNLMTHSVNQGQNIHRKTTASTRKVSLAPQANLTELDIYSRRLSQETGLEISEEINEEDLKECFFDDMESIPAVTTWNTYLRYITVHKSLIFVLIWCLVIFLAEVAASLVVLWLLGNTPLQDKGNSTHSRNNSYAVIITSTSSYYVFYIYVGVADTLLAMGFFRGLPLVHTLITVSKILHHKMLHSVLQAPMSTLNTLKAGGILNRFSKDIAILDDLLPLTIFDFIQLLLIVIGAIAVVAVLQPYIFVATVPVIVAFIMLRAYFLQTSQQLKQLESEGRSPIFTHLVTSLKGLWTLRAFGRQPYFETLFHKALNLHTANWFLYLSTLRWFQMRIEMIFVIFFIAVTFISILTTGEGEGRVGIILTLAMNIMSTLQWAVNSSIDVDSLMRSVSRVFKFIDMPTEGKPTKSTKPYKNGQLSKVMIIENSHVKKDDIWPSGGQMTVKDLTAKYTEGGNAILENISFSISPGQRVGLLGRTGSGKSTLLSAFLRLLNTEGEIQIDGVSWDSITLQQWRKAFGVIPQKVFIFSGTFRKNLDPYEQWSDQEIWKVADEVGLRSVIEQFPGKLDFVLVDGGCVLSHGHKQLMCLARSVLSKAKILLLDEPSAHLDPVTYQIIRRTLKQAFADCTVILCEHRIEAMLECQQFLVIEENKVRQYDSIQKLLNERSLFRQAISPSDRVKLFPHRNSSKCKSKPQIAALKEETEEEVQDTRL

EC50	Maximum % activity	Structure (SMILES)
890 nM	51.1%	COc1ccc2c(c1)OC(c1ccc(OC)c(OC)c1)CC2NC(=O)C1(c2ccc(F)cc2)CC1 (stereo not drawn) [Example 20, N-[2-(3,4-dimethoxyphenyl)-7-methoxy-3,4-dihydro-2H-1-benzopyran-4-yl]-1-(4-fluorophenyl)cyclopropane-1-carb oxamide]
1140 nM	77.8%	COc1ccc2c(c1)OC(c1ccc(OC)c(OC)c1)CC2NC(=O)C1(c2ccc(Cl)cc2)CC1 (stereo not drawn) [Example 21, 1-(4-chlorophenyl)-N-[2-(3,4-dimethoxyphenyl)-7-methoxy-3,4-dihydro-2H-1-benzopyran-4-yl]cyclopropane-1-carboxamide]
990 nM	56.6%	COc1ccc2c(c1)OC(c1ccc(OC)c(OC)c1)CC2NC(=O)C(C)(C)c1ccc(Cl)cc1 (stereo not drawn) [Example 22, 2-(4-chlorophenyl)-N-[2-(3,4-dimethoxyphenyl)-7-methoxy-3,4-dihydro-2H-1-benzopyran-4-yl]-2-methylpropanamide]
230 nM	54.0%	COc1ccc(C(C)(C)C(=O)NC2CC(c3ccc(OC)c(OC)c3)Oc3cc(OC)ccc32)cc1 (stereo not drawn) [Example 23, N-[2-(3,4-dimethoxyphenyl)-7-methoxy-3,4-dihydro-2H-1-benzopyran-4-yl]-2-(4-methoxyphenyl)-2-methylpropanamide]
1160 nM	38.3%	COc1ccc(C(C)(C)C(=O)N[C@H]2C[C@H](c3cccc(C(=O)O)c3)Oc3cc(OC)ccc32)cc1 [Example 24, 3-{(2R,4S)-7-methoxy-4-[2-(4-methoxyphenyl)-2-methylpropanamido]-3,4-dihydro-2H-1-benzopyran-2-yl}benzoic acid]
230 nM	39.5%	COc1ccc(C(C)(C)C(=O)N[C@@H]2C[C@H](c3cccc(C(=O)O)c3)Oc3cc(OC)ccc32)cc1 [Example 25, 3-{(2R,4R)-7-methoxy-4-[2-(4-methoxyphenyl)-2-methylpropanamido]-3,4-dihydro-2H-1-benzopyran-2-yl}benzoic acid]
> 20000 nM	1.6%	C[C@]1(C(=O)N[C@@H]2C[C@H](c3cccc(C(=O)O)c3)Oc3ccccc32)Cc2cc(Cl)ccc2O1 [Example 26, 3-[(2R,4R)-4-{[(2R)-5-chloro-2-methyl-2,3-dihydro-1-benzofuran-2-carbonyl]amino}-3,4-dihydro-2H-1-benzopyran-2-yl]benzoic acid]
> 20000 nM	7.9%	C[C@@]1(C(=O)N[C@@H]2C[C@H](c3cccc(C(=O)O)c3)Oc3ccccc32)Cc2cc(Cl)ccc2O1 [Example 27, 3-[(2R,4R)-4-{[(2S)-5-chloro-2-methyl-2,3-dihydro-1-benzofuran-2-carbonyl]amino}-3,4-dihydro-2H-1-benzopyran-2-yl]benzoic acid]
2490 nM	21.2%	COC(=O)c1cccc([C@H]2C[C@@H](NC(=O)[C@]3(C)CCc4cc(OC)ccc43)c3ccccc3O2)c1 [Example 28, methyl 3-[(2R,4R)-4-{[(1R)-5-methoxy-1-methyl-2,3-dihydro-1H-indene-1-carbonyl]amino}-3,4-dihydro-2H-1-benzopyran-2-yl]benzoate]
1440 nM	37.8%	COC(=O)c1cccc([C@H]2C[C@@H](NC(=O)[C@]3(C)CCc4cc(OC)ccc43)c3ccc(OC)cc3O2)c1 [Example 29, methyl 3-[(2R,4R)-7-methoxy-4-{[(1R)-5-methoxy-1-methyl-2,3-dihydro-1H-indene-1-carbonyl]amino}-3,4-dihydro-2H-1-benzopyran-2-yl]benzoate]
960 nM	48.4%	COC(=O)c1cccc([C@H]2C[C@@H](NC(=O)[C@@]3(C)CCc4cc(OC)ccc43)c3ccccc3O2)c1 [Example 30, methyl 3-[(2R,4R)-4-{[(1S)-5-methoxy-1-methyl-2,3-dihydro-1H-indene-1-carbonyl]amino}-3,4-dihydro-2H-1-benzopyran-2-yl]benzoate]
400 nM	63.6%	COC(=O)c1cccc([C@H]2C[C@@H](NC(=O)[C@@]3(C)CCc4cc(OC)ccc43)c3ccc(OC)cc3O2)c1 [Example 31, methyl 3-[(2R,4R)-7-methoxy-4-{[(1S)-5-methoxy-1-methyl-2,3-dihydro-1H-indene-1-carbonyl]amino}-3,4-dihydro-2H-1-benzopyran-2-yl]benzoate]
1210 nM	20.4%	COc1ccc2c(c1)CC[C@@]2(C)C(=O)N[C@@H]1C[C@H](c2cccc(C(=O)O)c2)Oc2ccccc21 [Example 32, 3-[(2R,4R)-4-{[(1R)-5-methoxy-1-methyl-2,3-dihydro-1H-indene-1-carbonyl]amino}-3,4-dihydro-2H-1-benzopyran-2-yl]benzoic acid]
270 nM	25.9%	COc1ccc2c(c1)CC[C@@]2(C)C(=O)N[C@@H]1C[C@H](c2cccc(C(=O)O)c2)Oc2cc(OC)ccc21 [Example 33, 3-[(2R,4R)-7-methoxy-4-{[(1R)-5-methoxy-1-methyl-2,3-dihydro-1H-indene-1-carbonyl]amino}-3,4-dihydro-2H-1-benzopyran-2-yl]benzoic acid]
410 nM	52.6%	COc1ccc2c(c1)CC[C@]2(C)C(=O)N[C@@H]1C[C@H](c2cccc(C(=O)O)c2)Oc2ccccc21 [Example 34, 3-[(2R,4R)-4-{[(1S)-5-methoxy-1-methyl-2,3-dihydro-1H-indene-1-carbonyl]amino}-3,4-dihydro-2H-1-benzopyran-2-yl]benzoic acid]
200 nM	57.5%	COc1ccc2c(c1)CC[C@]2(C)C(=O)N[C@@H]1C[C@H](c2cccc(C(=O)O)c2)Oc2cc(OC)ccc21 [Example 35, 3-[(2R,4R)-7-methoxy-4-{[(1S)-5-methoxy-1-methyl-2,3-dihydro-1H-indene-1-carbonyl]amino}-3,4-dihydro-2H-1-benzopyran-2-yl]benzoic acid]
670 nM	31.4%	COc1ccc2c(c1)O[C@@H](c1cccc(C(=O)O)c1)C[C@H]2NC(=O)C1(C)CCc2cc(Cl)ccc21 (stereo partly drawn) [Example 36, 3-{(2R,4R)-4-[(5-chloro-1-methyl-2,3-dihydro-1H-indene-1-carbonyl)amino]-7-methoxy-3,4-dihydro-2H-1-benzopyran-2-yl}benzoic acid]
> 20000 nM	6.1%	COc1ccc2c(c1)O[C@@H](c1cccc(C(=O)O)c1)C[C@H]2NC(=O)C(C)(C)c1ccc(OCC(C)C)cc1 [Example 37, 3-[(2R,4R)-7-methoxy-4-{2-methyl-2-[4-(2-methylpropoxy)phenyl]propanamido}-3,4-dihydro-2H-1-benzopyran-2-yl]benzoic acid]
870 nM	41.7%	COc1ccc2c(c1)O[C@@H](c1cccc(C(=O)O)c1)C[C@H]2NC(=O)C(C)(C)c1ccc2c(c1)OCCO2 [Example 39, 3-{(2R,4R)-4-[2-(2,3-dihydro-1,4-benzodioxin-6-yl)-2-methylpropanamido]-7-methoxy-3,4-dihydro-2H-1-benzopyran-2-yl}benzoic acid]
1700 nM	81.0%	COc1ccc2c(c1)O[C@@H](c1cccc(C(=O)O)c1)C[C@H]2NC(=O)C(C)(C)c1ccc(OC(F)(F)F)cc1 [Example 40, 3-[(2R,4R)-7-methoxy-4-{2-methyl-2-[4-(trifluoromethoxy)phenyl]propanamido}-3,4-dihydro-2H-1-benzopyran-2-yl]benzoic acid]
1670 nM	62.2%	COc1ccc2c(c1)O[C@@H](c1cccc(C(=O)O)c1)C[C@H]2NC(=O)C1(c2ccc(OC(F)(F)F)cc2)CC1 [Example 41, 3-[(2R,4R)-7-methoxy-4-({1-[4-(trifluoromethoxy)phenyl]cyclopropane-1-carbonyl}amino)-3,4-dihydro-2H-1-benzopyran-2-yl]benzoic acid]
